# Experimental data as given in patent US20260207573A1, “EFFECT OF RIVOCERANIB ON CYTOCHROME P450 ENZYME SUBSTRATES” (ELEVAR THERAPEUTICS, INC., priority 2022, published 2026).
# Entries after “also recorded” stand apart in the source; their conditions may differ.
# Columns and labels:
# [1] = human, in vivo
# Experimental: (§1) This was an open-label, 2-treatment, fixed-sequence drug-drug interaction phase 1 study designed to evaluated the impact of multiple oral doses of 700 mg rivoceranib on the single-dose PK of CYP enzyme substrates administered in a 5+1 Cooperstown probe cocktail (caffeine [CYP1A2], S- and R-warfarin [CYP2C9]+vitamin K, omeprazole [CYP2C19], dextromethorphan [CYP2D6], and midazolam [CYP3A]) in healthy volunteers (N=32). On day 1, volunteers received a single dose of the 5+1 cocktail comprising 200 mg caffeine, 10 mg S- and R-warfarin with 10 mg vitamin K, 40 mg omeprazole, 30 mg dextromethorphan, and 2 mg midazolam. Blood samples were collected pre-dose on day 1 and up to 120 hours post-dose for PK analyses of the substrates in the 5+1 cocktail. On days 6 to 15, volunteers received 700 mg rivoceranib once daily for 10 consecutive days with a single dose of the 5+1 cocktail administered on day 11. Blood samples were collected pre-dose on day 11 and up to 120 hours post cocktail dosing (day 16) for PK analyses. Each dosing was under fasted conditions. There was a washout period of 5 days between day 1 dosing and the first rivoceranib dose on day 6; the 2 cocktail dosings were spaced by 10 days.
# CYP2C9 [2] = molecular target: T1, CYP2C9 (Homo sapiens, UniProt P11712); assay: Example 2 phase 1 drug-drug interaction study, rivoceranib 700 mg QD + 5+1 cocktail: S- and R-warfarin probe; design: AUC(0-∞), Mean (CV %), 5 + 1 cocktail alone / AUC(0-∞), Geometric LSM, 5 + 1 cocktail alone / AUC(0-∞), Mean (CV %), Rivoceranib plus 5 + 1 cocktail / AUC(0-∞), Geometric LSM, Rivoceranib plus 5 + 1 cocktail / AUC(0-t), Mean (CV %), 5 + 1 cocktail alone / AUC(0-t), Geometric LSM, 5 + 1 cocktail alone / AUC(0-t), Mean (CV %), Rivoceranib plus 5 + 1 cocktail / AUC(0-t), Geometric LSM, Rivoceranib plus 5 + 1 cocktail: unit not given beside the values; settings: for AUC(0-t), Geometric LSM, Rivoceranib plus 5 + 1 cocktail / AUC(0-t), Mean (CV %), Rivoceranib plus 5 + 1 cocktail / AUC(0-∞), Geometric LSM, Rivoceranib plus 5 + 1 cocktail / AUC(0-∞), Mean (CV %), Rivoceranib plus 5 + 1 cocktail / Cmax, Geometric LSM, Rivoceranib plus 5 + 1 cocktail / Cmax, Mean (CV %), Rivoceranib plus 5 + 1 cocktail / AUC(0-t), Geometric LSM, 5 + 1 cocktail alone / AUC(0-t), Mean (CV %), 5 + 1 cocktail alone / AUC(0-∞), Geometric LSM, 5 + 1 cocktail alone / AUC(0-∞), Mean (CV %), 5 + 1 cocktail alone / Cmax, Geometric LSM, 5 + 1 cocktail alone / Cmax, Mean (CV %), 5 + 1 cocktail alone: healthy volunteers; for AUC(0-t), Geometric LSM, Rivoceranib plus 5 + 1 cocktail / AUC(0-t), Mean (CV %), Rivoceranib plus 5 + 1 cocktail / AUC(0-∞), Geometric LSM, Rivoceranib plus 5 + 1 cocktail / AUC(0-∞), Mean (CV %), Rivoceranib plus 5 + 1 cocktail / Cmax, Geometric LSM, Rivoceranib plus 5 + 1 cocktail / Cmax, Mean (CV %), Rivoceranib plus 5 + 1 cocktail: 5+1 cocktail day 11 + rivoceranib 700 mg QD days 6-15; for AUC(0-t), Geometric LSM, 5 + 1 cocktail alone / AUC(0-t), Mean (CV %), 5 + 1 cocktail alone / AUC(0-∞), Geometric LSM, 5 + 1 cocktail alone / AUC(0-∞), Mean (CV %), 5 + 1 cocktail alone / Cmax, Geometric LSM, 5 + 1 cocktail alone / Cmax, Mean (CV %), 5 + 1 cocktail alone: single oral 5+1 cocktail dose day 1, fasted; for increase in AUC0-inf when co-administered with rivoceranib / increase in Cmax when co-administered with rivoceranib: rivoceranib 700 mg
# T1 sequence (P11712 whole entry): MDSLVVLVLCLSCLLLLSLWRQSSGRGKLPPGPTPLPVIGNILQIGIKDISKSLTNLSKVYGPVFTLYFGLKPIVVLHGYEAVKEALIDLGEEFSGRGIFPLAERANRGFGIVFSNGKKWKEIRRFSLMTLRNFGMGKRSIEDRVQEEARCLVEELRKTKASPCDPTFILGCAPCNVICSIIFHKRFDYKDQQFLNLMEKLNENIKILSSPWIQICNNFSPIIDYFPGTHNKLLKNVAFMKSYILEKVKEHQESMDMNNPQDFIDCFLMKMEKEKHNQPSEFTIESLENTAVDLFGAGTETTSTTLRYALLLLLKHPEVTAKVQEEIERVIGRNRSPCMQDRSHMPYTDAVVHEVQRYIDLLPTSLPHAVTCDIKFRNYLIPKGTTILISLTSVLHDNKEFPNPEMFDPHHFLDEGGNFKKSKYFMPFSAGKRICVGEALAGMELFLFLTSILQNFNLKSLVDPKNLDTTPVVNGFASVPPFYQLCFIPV
# Experimental: (§2) This example describes a pharmacokinetic interaction study in healthy human volunteers dosed with 700 mg rivoceranib and a mixture of cytochrome P450 enzyme (CYP1A2, CYP2C9, CYP2C19, CYP2D6, and CYP3A) substrates.
# (§3) The primary objective of the study was to evaluate the effect of rivoceranib 700 mg once daily (QD) on the pharmacokinetics (PK) of various CYP substrates to determine drug-drug interactions of rivoceranib.
# as §1
# CYP2C9 [3] = molecular target: T1, CYP2C9; assay: Example 1 pharmacokinetic interaction study, rivoceranib 200 mg + Cooperstown 5+1 cocktail: warfarin probe
# CYP1A2 [4] = molecular target: T2, CYP1A2 (Homo sapiens, UniProt P05177); assay: Example 2 phase 1 drug-drug interaction study, rivoceranib 700 mg QD + 5+1 cocktail: caffeine probe; settings: for AUC(0-t) / AUC(0-inf) / Cmax: human, in vivo
# T2 sequence (P05177 1-516): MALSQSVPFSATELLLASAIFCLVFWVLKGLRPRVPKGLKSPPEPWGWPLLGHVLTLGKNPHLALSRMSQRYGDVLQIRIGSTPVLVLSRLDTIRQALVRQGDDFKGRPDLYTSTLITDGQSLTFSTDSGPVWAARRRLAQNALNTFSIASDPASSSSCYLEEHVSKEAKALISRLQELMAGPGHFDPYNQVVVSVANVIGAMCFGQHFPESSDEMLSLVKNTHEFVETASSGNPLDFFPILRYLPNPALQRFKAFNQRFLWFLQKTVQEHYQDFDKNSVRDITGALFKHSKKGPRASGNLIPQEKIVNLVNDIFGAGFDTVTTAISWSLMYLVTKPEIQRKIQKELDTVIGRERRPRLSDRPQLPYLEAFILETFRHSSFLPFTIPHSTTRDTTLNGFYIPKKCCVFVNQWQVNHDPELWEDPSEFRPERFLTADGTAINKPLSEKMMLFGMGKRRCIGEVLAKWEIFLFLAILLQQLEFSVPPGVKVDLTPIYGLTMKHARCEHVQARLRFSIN
# Experimental: as §2, §3, §1
# CYP1A2 [5] = molecular target: T2, CYP1A2; settings: in vivo, po
# CYP2C19 [6] = molecular target: T3, CYP2C19 (Homo sapiens, UniProt P33261); assay: Example 2 phase 1 drug-drug interaction study, rivoceranib 700 mg QD + 5+1 cocktail: omeprazole probe
# T3 sequence (P33261 whole entry): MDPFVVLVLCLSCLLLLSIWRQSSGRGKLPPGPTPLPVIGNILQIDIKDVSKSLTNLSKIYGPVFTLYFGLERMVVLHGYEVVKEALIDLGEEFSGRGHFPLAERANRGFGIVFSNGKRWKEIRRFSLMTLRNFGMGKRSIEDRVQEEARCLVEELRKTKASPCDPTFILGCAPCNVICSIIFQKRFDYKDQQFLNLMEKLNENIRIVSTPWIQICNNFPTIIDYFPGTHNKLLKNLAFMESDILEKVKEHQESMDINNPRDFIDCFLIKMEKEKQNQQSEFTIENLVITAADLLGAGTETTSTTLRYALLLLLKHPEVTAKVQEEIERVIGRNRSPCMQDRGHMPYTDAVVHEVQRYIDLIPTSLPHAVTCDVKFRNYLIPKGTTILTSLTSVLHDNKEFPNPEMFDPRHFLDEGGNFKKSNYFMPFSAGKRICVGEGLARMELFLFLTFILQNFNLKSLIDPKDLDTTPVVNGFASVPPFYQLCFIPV
# Experimental: as §2, §3, §1
# CYP2C19 [7] = molecular target: T3, CYP2C19; settings: in vivo, po
# [8] = oral, probe caffeine, Geometric LSM, Rivoceranib plus 5 + 1 cocktail, healthy volunteers, 5+1 cocktail day 11 + rivoceranib 700 mg QD days 6-15
# [9] = oral, probe caffeine, Mean (CV %), Rivoceranib plus 5 + 1 cocktail, healthy volunteers, 5+1 cocktail day 11 + rivoceranib 700 mg QD days 6-15
# [10] = po, probe caffeine, Geometric LSM, 5 + 1 cocktail alone, healthy volunteers, single oral 5+1 cocktail dose day 1, fasted
# [11] = po, probe caffeine, Mean (CV %), 5 + 1 cocktail alone, healthy volunteers, single oral 5+1 cocktail dose day 1, fasted
# [12] = rivoceranib 700 mg QD, 100*LSM Rivoceranib Plus 5+1 Cocktail/LSM 5+1 Cocktail Alone
# [13] = rivoceranib 200 mg once daily, oral substrate
# [14] = po, Geometric LSM, 5 + 1 cocktail alone
# [15] = po, Mean (CV %), 5 + 1 cocktail alone
structure (smiles),measurement,setting,value
"N#CC1(c2ccc(NC(=O)c3cccnc3NCc3ccncc3)cc2)CCCC1 [rivoceranib, N-[4-(1-cyanocyclopentyl)phenyl]-2-{[(pyridin-4-yl)methyl]amino}pyridine-3-carboxamide]",volunteers who had a TEAE (number),[1],16
same,volunteers who had a TEAE (percent),[1],53.30%
CC(=O)C[C@H](c1ccccc1)c1c(O)c2ccccc2oc1=O [R-warfarin],"AUC(0-t), Geometric LSM, Rivoceranib plus 5 + 1 cocktail",CYP2C9 [2],"36,090"
same,"AUC(0-t), Mean (CV %), Rivoceranib plus 5 + 1 cocktail",CYP2C9 [2],"36,660"
same,"AUC(0-∞), Geometric LSM, Rivoceranib plus 5 + 1 cocktail",CYP2C9 [2],"48,560"
same,"AUC(0-∞), Mean (CV %), Rivoceranib plus 5 + 1 cocktail",CYP2C9 [2],"49,220"
same,"Cmax, Geometric LSM, Rivoceranib plus 5 + 1 cocktail",CYP2C9 [2],804.9 ng/mL
same,"Cmax, Mean (CV %), Rivoceranib plus 5 + 1 cocktail",CYP2C9 [2],816.0 ng/mL
same,"AUC(0-t), Geometric LSM, 5 + 1 cocktail alone",CYP2C9 [2],"29,860"
same,"AUC(0-t), Mean (CV %), 5 + 1 cocktail alone",CYP2C9 [2],"29,860"
same,"AUC(0-∞), Geometric LSM, 5 + 1 cocktail alone",CYP2C9 [2],"36,750"
same,"AUC(0-∞), Mean (CV %), 5 + 1 cocktail alone",CYP2C9 [2],"36,750"
same,"Cmax, Geometric LSM, 5 + 1 cocktail alone",CYP2C9 [2],701.2 ng/mL
same,"Cmax, Mean (CV %), 5 + 1 cocktail alone",CYP2C9 [2],701.2 ng/mL
same,increase in AUC0-inf when co-administered with rivoceranib,CYP2C9 [2],32%
same,increase in Cmax when co-administered with rivoceranib,CYP2C9 [2],15%
same,levels on coadministration with rivoceranib,"CYP2C9 [3]; rivoceranib 200 mg daily, plasma, FIG. 4 and Table 5",relatively unaffected
Cn1c(=O)c2c(ncn2C)n(C)c1=O [caffeine],AUC(0-t),CYP1A2 [4]; [8],43200 ng·h/mL
same,AUC(0-t),CYP1A2 [4]; [9],44500 ng·h/mL
same,AUC(0-inf),CYP1A2 [4]; [8],45400 ng·h/mL
same,AUC(0-inf),CYP1A2 [4]; [9],47600 ng·h/mL
same,Cmax,CYP1A2 [4]; [8],5210 ng/mL
same,Cmax,CYP1A2 [4]; [9],5330 ng/mL
same,AUC(0-t),"CYP1A2 [4]; po, 200 mg, probe caffeine, Geometric LSM, 5 + 1 cocktail alone, healthy volunteers, single oral 5+1 cocktail dose day 1, fasted",52600 ng·h/mL
same,AUC(0-t),"CYP1A2 [4]; po, 200 mg, probe caffeine, Mean (CV %), 5 + 1 cocktail alone, healthy volunteers, single oral 5+1 cocktail dose day 1, fasted",52600 ng·h/mL
same,AUC(0-inf),CYP1A2 [4]; [10],53400 ng·h/mL
same,AUC(0-inf),CYP1A2 [4]; [11],53400 ng·h/mL
same,Cmax,CYP1A2 [4]; [10],5190 ng/mL
same,Cmax,CYP1A2 [4]; [11],5190 ng/mL
same,change of Cmax with rivoceranib,CYP1A2 [4]; rivoceranib 700 mg QD,relatively unchanged; also recorded: did not change
same,reduction of AUC0-inf by rivoceranib,CYP1A2 [4]; rivoceranib 700 mg QD,15%
same,"AUC(0-∞), Geometrical mean Ratio, % (90% CI)",CYP1A2 [4]; [12],84.87%
same,"Cmax, Geometrical mean Ratio, % (90% CI)",CYP1A2 [4]; [12],100.41%
same,"AUC(0-t), Geometric LS Mean, Cooperstown Cocktail Alone",CYP1A2 [5],10.6274
same,"AUC(0-∞), Geometric LS Mean, Cooperstown Cocktail Alone",CYP1A2 [5],10.6463
same,"Cmax, Geometric LS Mean, Cooperstown Cocktail Alone",CYP1A2 [5],8.4984
CC(=O)C[C@@H](c1ccccc1)c1c(O)c2ccccc2oc1=O [S-warfarin],"AUC(0-t), Geometric LSM, Rivoceranib plus 5 + 1 cocktail",CYP2C9 [2],"28,490"
same,"AUC(0-t), Mean (CV %), Rivoceranib plus 5 + 1 cocktail",CYP2C9 [2],"28,920"
same,"AUC(0-∞), Geometric LSM, Rivoceranib plus 5 + 1 cocktail",CYP2C9 [2],"34,670"
same,"AUC(0-∞), Mean (CV %), Rivoceranib plus 5 + 1 cocktail",CYP2C9 [2],"34,780"
same,"Cmax, Geometric LSM, Rivoceranib plus 5 + 1 cocktail",CYP2C9 [2],832.5 ng/mL
same,"Cmax, Mean (CV %), Rivoceranib plus 5 + 1 cocktail",CYP2C9 [2],840.2 ng/mL
same,"AUC(0-t), Geometric LSM, 5 + 1 cocktail alone",CYP2C9 [2],18.880
same,"AUC(0-t), Mean (CV %), 5 + 1 cocktail alone",CYP2C9 [2],"18,880"
same,"AUC(0-∞), Geometric LSM, 5 + 1 cocktail alone",CYP2C9 [2],"20,640"
same,"AUC(0-∞), Mean (CV %), 5 + 1 cocktail alone",CYP2C9 [2],"20,640"
same,"Cmax, Geometric LSM, 5 + 1 cocktail alone",CYP2C9 [2],701.1 ng/mL
same,"Cmax, Mean (CV %), 5 + 1 cocktail alone",CYP2C9 [2],701.1 ng/mL
same,increase in AUC0-inf when co-administered with rivoceranib,CYP2C9 [2],68%
same,increase in Cmax when co-administered with rivoceranib,CYP2C9 [2],19%
same,increase in AUC0-∞ with coadministration with rivoceranib,CYP2C9 [3]; [13],28%
same,increase in Cmax with coadministration with rivoceranib,CYP2C9 [3]; [13],5%
COc1ccc2[nH]c([S+]([O-])Cc3ncc(C)c(OC)c3C)nc2c1 (stereo not drawn) [omeprazole],increase in AUC0-inf with rivoceranib,CYP2C19 [6]; rivoceranib 700 mg,3.3 fold
same,increase in Cmax with rivoceranib,CYP2C19 [6]; rivoceranib 700 mg,2 fold
same,"AUC(0-t), Geometrical mean Ratio, % (90% CI)",CYP2C19 [6]; [12],259.87%
same,"AUC(0-∞), Geometrical mean Ratio, % (90% CI)",CYP2C19 [6]; [12],272.50%
same,"Cmax, Geometrical mean Ratio, % (90% CI)",CYP2C19 [6]; [12],198.80%
same,"AUC(0-t), Geometric LS Mean, Cooperstown Cocktail Alone",CYP2C19 [7],7.3711
same,"AUC(0-∞), Geometric LS Mean, Cooperstown Cocktail Alone",CYP2C19 [7],7.5365
same,"Cmax, Geometric LS Mean, Cooperstown Cocktail Alone",CYP2C19 [7],6.3720
Cn1c(=O)[nH]c2ncn(C)c2c1=O [paraxanthine],AUC(0-t),CYP1A2 [4]; [14],31000 ng·h/mL
same,AUC(0-t),CYP1A2 [4]; [15],31000 ng·h/mL
same,AUC(0-inf),CYP1A2 [4]; [14],31700 ng·h/mL
same,AUC(0-inf),CYP1A2 [4]; [15],28700 ng·h/mL
same,Cmax,CYP1A2 [4]; [14],1440 ng/mL
same,Cmax,CYP1A2 [4]; [15],1440 ng/mL
same,"AUC(0-t), Geometric LS Mean, Cooperstown Cocktail Alone",CYP1A2 [5],10.0780
same,"AUC(0-∞), Geometric LS Mean, Cooperstown Cocktail Alone",CYP1A2 [5],10.1025
same,"Cmax, Geometric LS Mean, Cooperstown Cocktail Alone",CYP1A2 [5],7.1157
